# Data reported in ChEMBL document CHEMBL3507680, “University of Dundee, Gates Library screen for HepG2 cell viability”.
# Assay: Human HepG2 cell viability assay in 384 well format
# Assay type: toxicity, cell-based
# Set-up: dose 125 nL, time 70.5 hour; cytotoxicity at 70.5 h: concentration not given beside the values
# Conditions: HepG2 cells, read-out: Inhibition
row,SMILES,cytotoxicity at 70.5 h [%]
1,CC(NCc1ccnc(OC2CCC2)c1)c1cnn(C)c1 (stereo not given),-15.1
2,CCn1ccnc1CN1CCCC1c1c(C)nn(C)c1OC (stereo not given),-4.2
3,N#Cc1ccc(CN2CCc3sccc3C2)c(F)c1,-1.03
4,COc1ccc(Cl)cc1CS(=O)(=O)Cc1nc(C)no1,15.2
5,O=C(CN1CCCS1(=O)=O)Nc1ccc(OC(F)F)cc1,-9.68
6,COc1ccc(Cl)cc1CS(=O)(=O)Cc1cc(C)on1,-5.88
7,Cc1ccc(C(=O)NCCCn2cccn2)c(=O)[nH]1,-0.293
8,Cc1ccc(CNC(=O)Nc2nnc(C(C)C)s2)n1C,-4.19
9,Cc1ccc(CNC(=O)Nc2nncs2)n1C,-7.51
10,CC(C)(C)c1ccc(S(=O)(=O)CCNC(=O)c2cnccn2)cc1,10.2
11,COCCS(=O)(=O)N(Cc1cscn1)c1ccccc1,-5.03
12,Cc1nn(C)c(Cl)c1C1CCCN1Cc1nnc(C2CC2)n1C (stereo not given),-0.0718
13,CN(C)S(=O)(=O)N(Cc1cscn1)c1ccccc1,12.4
14,Cc1ccc(C(=O)OC(C)Cn2cccn2)c(=O)[nH]1 (stereo not given),-0.535
15,O=C(CN1CCCS1(=O)=O)Nc1cccc(COC2CCCCC2)c1,-2.5
16,COc1cccc2c1CCC2NC(=O)NCc1csc(N(C)C)n1 (stereo not given),9.68
17,COc1ccccc1C(C#N)NC(=O)c1cccc2c1oc(=O)n2C (stereo not given),-6.2
18,COC(C)c1noc(CN(C)c2ncc(Br)cn2)n1 (stereo not given),-3.46
19,COc1c(C2CCCN2Cc2nnc(C3CC3)o2)c(C)nn1C (stereo not given),-4.73
20,CN(CCc1ccncc1)C(=O)c1sccc1OC(F)F,-10.6
21,COCCNc1ccc(CNCc2cnc3nc(C)cc(C)n23)cc1,-9.55
22,Cc1cc(C)n2c(CNCCNc3ccccc3)cnc2n1,-1.23

row,SMILES,cytotoxicity at 70.5 h [%]
1,CCn1cnnc1CNS(=O)(=O)N1CCCC1c1ccco1 (stereo not given),-9.43
2,CN(Cc1ccc(F)c(F)c1)Cc1cc2c(cc1Br)OCCO2,-8.74
3,Cc1ccc(CN(C(=O)NCC2CCS(=O)(=O)C2)C2CC2)o1 (stereo not given),-7.11
4,CC(C)c1nc(CSc2nnc(-c3cccs3)n2CC(N)=O)no1,-9.43
5,CC(C)c1cc(NC(=O)Cn2ccc(=O)c3ccccc32)[nH]n1,5.53
6,Cc1cc(NC(=O)Cn2ccc(=O)c3ccccc32)[nH]n1,-3.31
7,CC(C)CC(=O)N1Cc2ccccc2CC1C(=O)Nc1nncs1 (stereo not given),1.18
8,CCc1nnc(CN2CC(n3cccn3)C2)o1,-4.74
9,CN(Cc1nc2ccccc2n1C)C(=O)CCc1cscn1,-1.17
10,CCOC(=O)C1(O)CCN(C(=O)Nc2ccc(CC)cc2)CC1,-4.17
11,NS(=O)(=O)c1ccc(N2CCN(CCCc3cn[nH]c3)CC2)cc1,15.8
12,COCc1cccc(C(=O)N2CCCN(C(=O)OCC(C)C)CC2)c1,-5.18
13,CCc1ccc(C2CCCN2C(=O)CNC(=O)CCC(C)C)o1 (stereo not given),-1.81
14,CCc1ccc(C2CCCN2C(=O)NCC(=O)NCC(C)C)o1 (stereo not given),21.4
15,Cc1cc(NC(=O)N2CCOCC2)nn1-c1cccc(Cl)c1,-2.25
16,CCc1ncc2c(n1)CN(Cc1cn3ccsc3n1)CC2,9.84
17,CCCC(=O)N1CCCN(C(=O)Nc2ccc(C)s2)CC1,-4.08
18,O=C(c1ccc(OCC2CC2)cc1)N1CCOCC1c1ncon1 (stereo not given),1.72
19,Cn1c(NCC(=O)N2CCCC2)c(C#N)c(=O)n(C)c1=O,12.4
20,O=C(Cn1cccnc1=O)NCC1Cc2ccccc2O1 (stereo not given),-9.82
21,CC1CN(C(=O)NCc2cnn(-c3ccc(F)cc3F)c2)CCO1 (stereo not given),-11.2
22,CCNC(=O)NCc1cnn(-c2ccc(F)cc2F)c1,-10.2

row,SMILES,cytotoxicity at 70.5 h [%]
1,Cc1ccsc1C(Cc1ccccc1)NC(=O)CNC(=O)C1CC1 (stereo not given),-3.91
2,CCNC(=O)CCC(=O)NC(Cc1ccccc1)c1sccc1C (stereo not given),-7.03
3,CC(=O)c1ccc(C(=O)Nc2ccnc(N(C)C)n2)cc1,6.64
4,CSCC(=O)Nc1ncc(I)cc1C,11.6
5,COc1cccc(CC(=O)N2CCN(c3cccc(C)c3)C(C)C2)c1 (stereo not given),0.115
6,Clc1ccc(C2(NCc3noc(C4CC4)n3)CCC2)cc1,-5.74
7,O=C1C(N2CCOC3(CCCC3)C2)CCN1C1CC1 (stereo not given),-1.76
8,COc1ccc(C2(NCc3noc(C4CC4)n3)CCOCC2)cc1,-12.1
9,CC(C)CC(NC(=O)c1ccc[nH]1)C(=O)N1CCC(CO)CC1 (stereo not given),-11.2
10,CC(C)CC(C)NCc1cccnc1N1CCOCC1 (stereo not given),19.8
11,O=C(c1ccc(-n2cc(Br)cn2)cc1)N1CCN(c2cnccn2)CC1,-10
12,Cc1ccnn1-c1ccc(C(=O)N2CCN(c3cnccn3)CC2)cc1,-0.832
13,O=C(c1ccc(-n2ccnc2)cc1)N1CCN(c2cnccn2)CC1,2.67
14,CC(SCC(=O)NC(N)=O)c1ccc(Cl)cc1 (stereo not given),-9.52
15,CN1CCN(CCCNC(=O)C2CCCCC2)CC1,12.1
16,O=C(Nc1ccc(F)cc1)C1CCN(Cc2noc(C3CC3)n2)CC1,-7.96
17,CCNC(=O)CCS(=O)(=O)Cc1ccn(-c2cccc(F)c2)n1,2.48
18,N#Cc1ccc(C(=O)N(C2CC2)C2CC(=O)NC2=O)cc1 (stereo not given),-8.96
19,CCOC(=O)c1ccc(NC(=O)c2cc3c([nH]c2=O)CCCC3)cc1,-14.4
20,O=C1CC(N(C(=O)c2ccccc2Br)C2CC2)C(=O)N1 (stereo not given),2.23
21,CC1CCN(C)c2ccccc2N1C(=O)c1ccnc(-n2cncn2)c1 (stereo not given),2.2
22,CC(=O)c1c(C)cc(C)c(Cn2ccnc2S(C)(=O)=O)c1C,6.42

row,SMILES,cytotoxicity at 70.5 h [%]
1,O=C(c1ccc(-n2cncn2)cc1)N1CCN(c2cnccn2)CC1,-9.5
2,Cc1cnn(Cc2ccc(NC(=O)N[C@@H]3C=C[C@H](CO)C3)cc2)c1,-15.1
3,CCCN1CCCN(c2ccc(-n3ccc(C)n3)nn2)CC1,-7.57
4,Cc1ccn(-c2ccc(N3CCCN(Cc4ccccc4)CC3)nn2)n1,2.19
5,CC1CN(C(=O)c2ccnc(-n3cncn3)c2)c2ccccc2S1 (stereo not given),-0.177
6,Cn1ncc(C(=O)OCC2CC(=O)N(c3ccccc3)C2)c1C(F)F (stereo not given),-9.29
7,CC(O)CC(C)(C)CNC(=O)Nc1cnn(-c2ccccc2F)c1 (stereo not given),-4.35
8,Cc1cccc2ncnc(N3CCOC(C)C3)c12 (stereo not given),2.61
9,Cc1c(C(=O)OCC2CC(=O)N(c3ccccc3)C2)cnn1C(C)C (stereo not given),-0.00833
10,Cn1cc(C2(C)CN(Cc3ccc(O)c(Cl)c3)CCO2)cn1 (stereo not given),-6.24
11,Cn1cc(C2(C)CN(Cc3ccc(Cl)c(F)c3)CCO2)cn1 (stereo not given),-7.47
12,O=C(NCC1CC(=O)N(CCc2ccccc2)C1)c1ccc[nH]1 (stereo not given),-8.75
13,Cc1cc(CN(C)C(=O)NCc2ccccn2)no1,-1.24
14,Cc1cc(CN(C)C(=O)NCc2ccnc(OC3CCCC3)c2)no1,-3.22
15,O=C(NCCNc1ncccn1)N1CC=C(c2ccccc2)CC1,-4.56
16,O=C(NCCNc1cnccn1)N1CCc2ccccc2C1,-13.1
17,COc1c(C)cnc(CNC(=O)c2cc(C)nc3onc(C)c23)c1C,-5.39
18,O=C(NCc1ccccc1CO)Nc1ccc2c(c1)CCO2,7.29
19,COc1c(CNCc2ccc(Cn3cccn3)cc2)c(C)nn1C,3.44
